In series [1] the test system is Thrombin-antithrombin complexes. The series is described as follows: thrombin-antithrombin complexes levels (TAT) in PTCA patients. Conditions: 2 hours after PS injection; fell from 21.9±18.7 before. It is filed as in vivo, human.
The test system of the next series is prothrombin fragment 1+2. In words: prothrombin fragment 1+2 levels in PTCA patients. It is filed as in vivo, human. Conditions: 2 hours after PS injection; fell from 2.08±1.04 before.
The subject of series [2] is patients undergoing a transluminal angioplasty of the coronaries. In words: pilot clinical study in patients undergoing PTCA: thrombus formation at PTCA sites and TIMI flow in target vessel. The format is in vivo, human. To be noted: 71 patients. As to the method: A single dose of 12 mg of PS via the intravenous route and 500 mg of aspirin, via the intravenous route, was administered to the patients.
To assess the antithrombotic activity 71 patients with stable angina (26), recent unstable angina (11) or recent myocardial infarction (34) with type A or B coronary lesions underwent PTCA with a single 12 mg PS i.v. bolus injection and 500 mg i.v. aspirin. Angiography was repeated 24 h after PTCA. The endpoints were thrombus formation at PTCA sites and the thrombolysis in myocardial infarction (TIMI) flow in target vessel. Heparin was not allowed before, during and within 24 h after PTCA.

Series [3] is described as follows: activated clotting time (ACT) in PTCA patients. To be noted: after 12 mg PS i.v. and 500 mg i.v. aspirin. The format is in vivo, human.
[4] abbreviates: single 12 mg PS i.v. bolus and 500 mg i.v. aspirin, no heparin.

For the compound `CO[C@H]1OC(COS(=O)(=O)O)[C@@H](O[C@@H]2OC(C(=O)O)[C@H](O[C@@H]3OC(COS(=O)(=O)O)[C@@H](O[C@@H]4OC(C(=O)O)[C@@H](O[C@H]5OC(COS(=O)(=O)O)[C@@H](O)C(O)C5NS(=O)(=O)O)C(O)C4O)C(OS(=O)(=O)O)C3NS(=O)(=O)O)C(O)C2OS(=O)(=O)O)C(O)C1NS(=O)(=O)O` (stereo partly drawn) [PS, methyl O-(2-deoxy-2-sulphoamino-6-O-sulpho-α-D-gluco-pyranosyl)-(1→4)-O-(β-D-glucopyranosyluronic acid)-(1→4)-O-(2-deoxy-2-sulphoamino-3,6-di-O-sulpho-α-D-glucopyranosyl)-(1→4)-O-(2-O-sulpho-α-L-idopyranosyl-uronic acid)-(1→4)-2-deoxy-2-sulphoamino-6-O-sulpho-α-D-glucopyranoside], the “Thrombin-antithrombin complexes levels (TAT)” value in series [1] came to 4.8 ± 3.8 µg/L. Besides, the “prothrombin fragment 1+2” value in the series on prothrombin fragment 1+2 was determined as 1.54 ± 82 ng/mL. Further, the major bleeding result in series [2] (12 mg PS i.v. and 500 mg i.v. aspirin) is “No major bleeding occurred”. Besides, in series [2] (setting [4]), the “Acute thrombotic closure at dissected PTCA site” value is given as 1 patient and the “distal embolization of a thrombus containing plaque” value is 1 patient. For the same compound, the “TIMI 3 flow without thrombus at PTCA site” value in series [2] (at 24 h after PTCA, 12 mg PS i.v. and 500 mg i.v. aspirin) turned out to be 71 patients. Also, the “Anti-Xa activity, peak” value in the series on factor Xa (10 min. after 12 mg PS i.v. bolus (with 500 mg i.v. aspirin)) was 1.20±0.29 U anti-Xa/ml. In the series with factor Xa (2 hours after PS administration, 12 mg i.v. (with 500 mg i.v. aspirin)), the “Anti-Xa activity, maintained on average” value was 0.87 ±0.14 U anti-Xa/ml. Further, the “activated clothing time ACT” value in series [3] is listed as “remained unchanged”.

Source of the values: US20020160981A1, “Compositions containing an association of aspirin and an anti-Xz oligosaccharide and use of an anti-Xa oligosaccharide optionally in combination with aspirin” (Sanofi-Synthelabo, priority 1997, published 2002).
